According to patent EP1662258A1, “A substrate free in vitro protein kinase assay” (Sirenade Pharmaceuticals AG, priority 2004, dated 2006):
Values joined by “and” are separate entries in the source; they are usually repeats but may differ in a detail not shown here. Equal values may be shown once. “Also recorded” adds a separate entry of the source.

Legend:
Src kinase Srcv2 = Src kinase Srcv2 (Homo sapiens, UniProt P12931); test: Src protein tyrosine kinase auto-phosphorylation (autoactivation) assay with Srcv2
Method: After mixing the kinase with the compound the final DMSO concentration was 40%. Then, 190 µl of the preincubated compound/kinase solution are transfered to 96 well Ni-NTA plates (Ni-NTA HisSorb™ plates, white, Qiagen (cat.No.35081) and incubated for 30 min at room temperature on a rotation shaker at 300 rpm to allow binding of the kinase to the wells. The kinase/compound solution containing unbound kinase and compound is carefully replaced by 200 µl of DMSO free initiation buffer (50 mM Tris/HCl, pH 7.2, 10 mM MgCl2, 100 µM ATP) per well and the plate is incubated for 20 min at room temperature on a rotation shaker at 300 rpm.
The initiation buffer is then removed carefully and the plate is washed two times with PBS-Tween (PBS-T) buffer (50 mM potassium phosphate, pH 7.2, 150 mM NaCl, 0.05 % Tween 20) (200 µl per well per washing step).
The antibody solution is removed carefully and the plate is washed three times with 200 µl PBS-T buffer (200 µl per well per washing step).
• 2.7.1 The assay was used for qualitative and quantitative analysis of different compound classes. […] The assay was performed either manually or in a semiautomatic approach using the EP3 robotor (Perkin Elmer) for automated pipetting steps. […] Solution was removed and 200 µl assay buffer, containing 100µM ATP was added and the plate was incubated for 30 min at RT on a rotation shaker. Solution was removed and wells were washed 3 times with 200µl PBST. Afterwards 200 µl 1:2000 diluted anti p-Tyr antibody in PBST-0.5% BSA was added and the plate was incubated for 30 min at RT on a rotation shaker. The degree of src kinase auto-phosphorylation was detected with an anti p-Tyr-antibody as described above. […] The DMSO concentration was 30 %. […] The measurements were carried out either as unicates or as triplicates. The standard deviation is shown by error bars.
In order to get information about the quality of the assay the z' was determined for the assay. For determination of the maximal counts src v2 in the absence of inhibitor was used.

Src kinase (Srcv1) = Src kinase (Srcv1) (Homo sapiens, UniProt P12931); test: Src protein tyrosine kinase auto-phosphorylation (autoactivation) assay, Srcv1 immobilised on Ni-NTA plates, anti p-Tyr chemoluminiscence readout
Method: The assay will be performed as a solid phase assay, which can be done by immobilisation of the kinase (Srcv1) via its His6-tag on Ni-NTA coated 96 wells (Qiagen), as this assay system allows washing steps. Thus it was evaluated, whether it is possible to detect auto-phosphorylated src kinase, immobilized on Ni-NTA coated plates with an HRP labeled anti p-Tyr antibody. Therefore, Src kinase (1.0µM) was incubated for 30 min either in the presence and absence of 50 µM ATP at RT in incubation buffer (50 mM Tris/HCl, pH 7.2, 10 mM MgCl2). Afterwards the solution was diluted to 1.0, 0.5, 0.25 and 0.0 µM final src protein concentration in PBS and incubated for 30 min (V= 200µl) on NiNTA coated plates at RT on a rotation shaker (300 rpm). After removal of the supernatant and 3 times washing with 200 µl PBS-T, immobilized, phosphorylated src kinase was detected. Therefore, a solution of HRP-labeled anti p-Tyr antibody (Abcam) (200 µl, 1:2000 diluted in PBST-0.5% BSA) was added to the wells and the plate was incubated for 30 min at RT °C, 300 rpm. After removal of the supernatant and 3 times washing with 200 µl PBS-T, chemoluminiscence development buffer was added (200 µl of a 1:1 mixture of ECL substrate, Amersham) and chemoluminiscence signal was quantified using Wallac1420 Multilabel counter (Victor^2).
Afterwards 100 µl assay buffer containing 100 µM ATP was added (except for the negative control which was incubated with 100 µl assay buffer without ATP) and the mixture was transfered to Ni-NTA coated plates and further incubated for 20 min at RT on a rotation shaker (300 rpm). The degree of src kinase auto-phosphorylation was detected with an anti p-Tyr-antibody as described above (see Figure 3a).
The solution was transfered on NiNTA plates and incubated for 30 min with 100 µl assay buffer containing 100 µM ATP for the auto-phosphorylation of src. The degree of src kinase auto-phosphorylation was detected with an anti p-Tyr-antibody as described above (see Figure 3b).

chemoluminiscence signal (counts), mean, first series (Src kinase Srcv2): 5948
chemoluminiscence signal (counts), mean, second series (Src kinase Srcv2): 5700
chemoluminiscence signal (counts), single values, first series (Src kinase Srcv2): 5816 and 5922 and 5781 and 6275
chemoluminiscence signal (counts), single values, second series (Src kinase Srcv2): 6060 and 5465 and 5523 and 5752
inhibition of Srcv2 kinase (dose response curves, in words) (Src kinase Srcv2): showed inhibition
inhibition of the kinase activity (in words) (Src kinase (Srcv1); Src kinase (100µl, 2.0 µM), PP1 1.25 mM, 10% DMSO, ATP 100 µM, Figure 3A): clear inhibition
SMILES: Cc1ccc(-c2nn(C(C)(C)C)c3ncnc(N)c23)cc1 [PP1]
inhibition of auto-phosphorylation of src kinase (in words) (Src kinase (Srcv1); 100 µl src kinase (1.0 µM), compound 1.25 mM, 30% DMSO, 100 µM ATP, Figure 3b): potently inhibits; also recorded: strongest inhibition
